Measurements from patent US20110224210A1, “NOVEL BIS-AMIDES AS ANTI-MALARIAL AGENTS” (priority 2008, published 2011).

What follows are compounds tested on P. falciparum K1 (strain resistant to chloroquine and pyrimethamine), erythrocytic stages (assay: Plasmodium falciparum in vitro assay, [3H] hypoxanthine incorporation). Conditions: Plasmodium falciparum, K1, P. falciparum strain K1; [3H] hypoxanthine incorporation; read-out: IC50 (nM) on K1.
Type: cell-based
Protocol: In Vitro Antimalarial Activity: Plasmodium falciparum In Vitro Assay
In vitro activity against erythrocytic stages of P. falciparum is determined using a [^3H] hypoxanthine incorporation assay. One strain resistant to chloroquine and pyrimethamine (P. falciparum K1) is used in the assays, and all test compounds are compared for activity with the standard drugs chloroquine (sigma C6628) and artemisinin (sigma-36, 159-3). Compounds are diluted in DMSO to 1 mM and added to parasite cultures incubated in RPMI 1640 medium without hypoxanthine, supplemented with HEPES (5.94 g/L), NaHCO3 (2.1 g/L), neomycin (100 U/mL), Albumax (5 g/L) and washed human red cells at 2.5% haematocrit (0.3% parasitaemia). Seven serial doubling dilutions of each compound are prepared in 96-well microtitre plates and incubated in a humidifying atmosphere at 37° C.; 4% CO2, 3% O2, 93% N2.
After 48 h, 50 μl of [3H] hypoxanthine (0.5 μCi) is added to each well of a plate. The plates are incubated for a further 24 h under the same conditions. The plates are then harvested with a Betaplate cell harvester (Wallac) and washed with distilled water. The dried filters are inserted into a plastic foil with 10 mL of scintillation fluid, and counted in a Betaplate liquid scintillation counter. IC50 values are calculated from sigmoidal inhibition curves using Microsoft Excel.

Row | SMILES | IC50 [nM]
1 | Cc1ccc(C=CC(=O)N(Cc2ccc(-c3ccccn3)cc2)[C@@H](Cc2ccccc2)C(=O)N2CCC(N(C)C)CC2)nc1 [Example 15, (S)-N-[1-Benzyl-2-(4-dimethylamino-piperidin-1-yl)-2-oxo-ethyl]-3-(5-methyl-pyridin-2-yl)-N-(4-pyridin-2-yl-benzyl)-acrylamide] | 163
2 | Cc1c(C=CC(=O)N(Cc2ccc(-c3ccccn3)cc2)[C@@H](Cc2ccccc2)C(=O)N2CCC(N(C)C)CC2)cnn1C [Example 18, (S)-N-[1-Benzyl-2-(4-dimethylamino-piperidin-1-yl)-2-oxo-ethyl]-3-(1,5-dimethyl-1H-pyrazol-4-yl)-N-(4-pyridin-2-yl-benzyl)-acrylamide] | 273
3 | CN(C)C1CCN(C(=O)[C@H](Cc2ccccc2)N(Cc2ccc(-c3ccncc3)cc2)C(=O)C=Cc2ccn(C)n2)CC1 [Example 19, (S)-N-[1-Benzyl-2-(4-dimethylamino-piperidin-1-yl)-2-oxo-ethyl]-3-(1-methyl-1H-pyrazol-3-yl)-N-(4-pyridin-4-yl-benzyl)-acrylamide] | 250
4 | Cc1cc(C=CC(=O)N(Cc2ccc(-c3ccncc3)cc2)[C@@H](Cc2ccccc2)C(=O)N2CCC(N(C)C)CC2)n(C)n1 [Example 20, (S)-N-[1-Benzyl-2-(4-dimethylamino-piperidin-1-yl)-2-oxo-ethyl]-3-(2,5-dimethyl-2H-pyrazol-3-yl)-N-(4-pyridin-4-yl-benzyl)-acrylamide] | 116
5 | Cc1nc(C=CC(=O)N(Cc2ccc(-c3ccncc3)cc2)[C@@H](Cc2ccccc2)C(=O)N2CCC(N(C)C)CC2)cs1 [Example 23, (S)-N-[1-Benzyl-2-(4-dimethylamino-piperidin-1-yl)-2-oxo-ethyl]-3-(2-methyl-thiazol-4-yl)-N-(4-pyridin-4-yl-benzyl)-acrylamide] | 141
6 | COc1ccc(C=CC(=O)N(Cc2ccc(-c3ccncc3)cc2)[C@@H](Cc2ccccc2)C(=O)N2CCC(N(C)C)CC2)nn1 [Example 26, (S)-N-[1-Benzyl-2-(4-dimethylamino-piperidin-1-yl)-2-oxo-ethyl]-3-(6-methoxy-pyridazin-3-yl)-N-(4-pyridin-4-yl-benzyl)-acrylamide] | 465
7 | COc1ncc(C=CC(=O)N(Cc2ccc(-c3ccncc3)cc2)[C@@H](Cc2ccccc2)C(=O)N2CCC(N(C)C)CC2)cn1 [Example 32, (S)-N-[1-Benzyl-2-(4-dimethylamino-piperidin-1-yl)-2-oxo-ethyl]-3-(2-methoxy-pyrimidin-5-yl)-N-(4-pyridin-4-yl-benzyl)-acrylamide] | 298
8 | CC(=O)N1CCN(c2ccc(CN(C(=O)C=Cc3c(C)nn(C)c3C)[C@@H](Cc3ccccc3)C(=O)N3CCC(N(C)C)CC3)cc2)CC1 [Example 33, (S)-N-[4-(4-Acetyl-piperazin-1-yl)-benzyl]-N-[1-benzyl-2-(4-dimethylamino-piperidin-1-yl)-2-oxo-ethyl]-3-(1,3,5-trimethyl-1H-pyrazol-4-yl)-acrylamide] | 319
9 | COc1ccc(C=CC(=O)N(Cc2ccc(N3CCN(C(C)=O)CC3)cc2)[C@@H](Cc2ccccc2)C(=O)N2CCC(N(C)C)CC2)cn1 [Example 34, (S)-N-[4-(4-Acetyl-piperazin-1-yl)-benzyl]-N-[1-benzyl-2-(4-dimethylamino-piperidin-1-yl)-2-oxo-ethyl]-3-(6-methoxy-pyridin-3-yl)-acrylamide] | 433
10 | CC(=O)N1CCN(c2ccc(CN(C(=O)C=Cc3ccc(C(F)(F)F)cn3)[C@@H](Cc3ccccc3)C(=O)N3CCC(N(C)C)CC3)cc2)CC1 [Example 35, (S)-N-[4-(4-Acetyl-piperazin-1-yl)-benzyl]-N-[1-benzyl-2-(4-dimethylamino-piperidin-1-yl)-2-oxo-ethyl]-3-(5-trifluoromethyl-pyridin-2-yl)-acrylamide] | 317
11 | Cc1nn(C)c(C)c1C=CC(=O)N(Cc1ccc(-c2cncnc2)cc1)[C@@H](Cc1ccccc1)C(=O)N1CCC(N(C)C)CC1 [Example 36, (S)-N-[1-Benzyl-2-(4-dimethylamino-piperidin-1-yl)-2-oxo-ethyl]-N-(4-pyrimidin-5-yl-benzyl)-3-(1,3,5-trimethyl-1H-pyrazol-4-yl)-acrylamide] | 173
12 | Cc1nc(C)c(C=CC(=O)N(Cc2ccc(-c3cncnc3)cc2)[C@@H](Cc2ccccc2)C(=O)N2CCC(N(C)C)CC2)s1 [Example 37, (S)-N-[1-Benzyl-2-(4-dimethylamino-piperidin-1-yl)-2-oxo-ethyl]-3-(2,4-dimethyl-thiazol-5-yl)-N-(4-pyrimidin-5-yl-benzyl)-acrylamide] | 279
13 | Cc1noc(C)c1C=CC(=O)N(Cc1ccc(-c2cncnc2)cc1)[C@@H](Cc1ccccc1)C(=O)N1CCC(N(C)C)CC1 [Example 38, (S)-N-[1-Benzyl-2-(4-dimethylamino-piperidin-1-yl)-2-oxo-ethyl]-3-(3,5-dimethyl-isoxazol-4-yl)-N-(4-pyrimidin-5-yl-benzyl)-acrylamide] | 417
14 | CN(C)C1CCN(C(=O)[C@H](Cc2ccccc2)N(Cc2ccc(-c3cncnc3)cc2)C(=O)C=Cc2ccc(Cl)cn2)CC1 [Example 39, (S)-N-[1-Benzyl-2-(4-dimethylamino-piperidin-1-yl)-2-oxo-ethyl]-3-(5-chloro-pyridin-2-yl)-N-(4-pyrimidin-5-yl-benzyl)-acrylamide] | 170

Further compounds by falling IC50, results first:

Row | IC50 [nM] | SMILES
15 | 115 | COc1ccc(C=CC(=O)N(Cc2ccc(-c3ccccn3)cc2)[C@@H](Cc2ccccc2)C(=O)N2CCC(N(C)C)CC2)cn1 [Example 16, (S)-N-[1-Benzyl-2-(4-dimethylamino-piperidin-1-yl)-2-oxo-ethyl]-3-(6-methoxy-pyridin-3-yl)-N-(4-pyridin-2-yl-benzyl)-acrylamide]
16 | 113 | CN(C)C1CCN(C(=O)[C@H](Cc2ccccc2)N(Cc2ccc(-c3ccccn3)cc2)C(=O)C=Cc2ccc(C(F)(F)F)cn2)CC1 [Example 17, (S)-N-[1-Benzyl-2-(4-dimethylamino-piperidin-1-yl)-2-oxo-ethyl]-N-(4-pyridin-2-yl-benzyl)-3-(5-trifluoromethyl-pyridin-2-yl)-acrylamide]
17 | 103 | Cc1noc(C)c1C=CC(=O)N(Cc1ccc(-c2ccncc2)cc1)[C@@H](Cc1ccccc1)C(=O)N1CCC(N(C)C)CC1 [Example 24, (S)-N-[1-Benzyl-2-(4-dimethylamino-piperidin-1-yl)-2-oxo-ethyl]-3-(3,5-dimethyl-isoxazol-4-yl)-N-(4-pyridin-4-yl-benzyl)-acrylamide]
18 | 90 | Cc1nc(C=CC(=O)N(Cc2ccc(-c3ccncc3)cc2)[C@@H](Cc2ccccc2)C(=O)N2CCC(N(C)C)CC2)c(C)o1 [Example 25, (S)-N-[1-Benzyl-2-(4-dimethylamino-piperidin-1-yl)-2-oxo-ethyl]-3-(2,5-dimethyl-oxazol-4-yl)-N-(4-pyridin-4-yl-benzyl)-acrylamide]
19 | 81 | Cc1ccc(C=CC(=O)N(Cc2ccc(-c3ccncc3)cc2)[C@@H](Cc2ccccc2)C(=O)N2CCC(N(C)C)CC2)nc1 [Example 28, (S)-N-[1-Benzyl-2-(4-dimethylamino-piperidin-1-yl)-2-oxo-ethyl]-3-(5-methyl-pyridin-2-yl)-N-(4-pyridin-4-yl-benzyl)-acrylamide]
20 | 67 | Cc1ccc(C=CC(=O)N(Cc2ccc(-c3ccncc3)cc2)[C@@H](Cc2ccccc2)C(=O)N2CCC(N(C)C)CC2)cn1 [Example 27, (S)-N-[1-Benzyl-2-(4-dimethylamino-piperidin-1-yl)-2-oxo-ethyl]-3-(6-methyl-pyridin-3-yl)-N-(4-pyridin-4-yl-benzyl)-acrylamide]
21 | 60 | Cc1nc(C)c(C=CC(=O)N(Cc2ccc(-c3ccncc3)cc2)[C@@H](Cc2ccccc2)C(=O)N2CCC(N(C)C)CC2)s1 [Example 22, (S)-N-[1-Benzyl-2-(4-dimethylamino-piperidin-1-yl)-2-oxo-ethyl]-3-(2,4-dimethyl-thiazol-5-yl)-N-(4-pyridin-4-yl-benzyl)-acrylamide]
22 | 54 | Cc1c(C=CC(=O)N(Cc2ccc(-c3ccncc3)cc2)[C@@H](Cc2ccccc2)C(=O)N2CCC(N(C)C)CC2)cnn1C [Example 31, (S)-N-[1-Benzyl-2-(4-dimethylamino-piperidin-1-yl)-2-oxo-ethyl]-3-(1,5-dimethyl-1H-pyrazol-4-yl)-N-(4-pyridin-4-yl-benzyl)-acrylamide]
23 | 34 | COc1ccc(C=CC(=O)N(Cc2ccc(-c3ccncc3)cc2)[C@@H](Cc2ccccc2)C(=O)N2CCC(N(C)C)CC2)cn1 [Example 29, (S)-N-[1-Benzyl-2-(4-dimethylamino-piperidin-1-yl)-2-oxo-ethyl]-3-(6-methoxy-pyridin-3-yl)-N-(4-pyridin-4-yl-benzyl)-acrylamide]
24 | 34 | CN(C)C1CCN(C(=O)[C@H](Cc2ccccc2)N(Cc2ccc(-c3ccncc3)cc2)C(=O)C=Cc2ccc(C(F)(F)F)cn2)CC1 [Example 30, (S)-N-[1-Benzyl-2-(4-dimethylamino-piperidin-1-yl)-2-oxo-ethyl]-N-(4-pyridin-4-yl-benzyl)-3-(5-trifluoromethyl-pyridin-2-yl)-acrylamide]
25 | 14 | Cc1nn(C)c(C)c1C=CC(=O)N(Cc1ccc(-c2ccncc2)cc1)[C@@H](Cc1ccccc1)C(=O)N1CCC(N(C)C)CC1 [Example 21, (S)-N-[1-Benzyl-2-(4-dimethylamino-piperidin-1-yl)-2-oxo-ethyl]-N-(4-pyridin-4-yl-benzyl)-3-(1,3,5-trimethyl-1H-pyrazol-4-yl)-acrylamide]
